Results on one compound are retold here after patent US8206756B2, “Herbal composition for inflammatory disorders” (Piramal Life Sciences Limited, priority 2005, dated 2012).

In test [1] the test system is IL-8. Description: IL-8 production by synovial cells from a RA patient. The format is cell-based. As to conditions: Homo sapiens, Synovial cell, 10 hours. On the procedure:
(§1) Cytokine production by synovial cells obtained from a rheumatoid arthritis (RA) patient undergoing knee replacement surgery was measured according to the method described by Brennan, F. M. et al (The Lancet. July 29: 244-247, (1989)). The synovial membrane tissue was digested in DMEM (Gibco) containing 10% FBS, 100 U/ml penicillin and 100 μg/ml streptomycin, 4 mg/ml collagenase type I (Worthington), 1.5 μg/ml Dnase type I (Sigma) and 15 U/ml heparin and incubated at 37° C. for 3 hours. After incubation, the digested tissue was filtered through a 70-μm membrane and the cells washed 3 times in complete medium (DMEM with 10% FBS). The synovial cells were cultured at 1×10^6 cells/ml in presence/absence of the test sample for 10 hours. The supernatants were harvested by centrifugation and levels of the cytokines (TNF-α, IL-1β, IL-6, IL-8) measured by ELISA. To assess the cytotoxic effect of the plant extracts, the cellular viability test was performed using MTS reagent. The 50% inhibitory concentration (IC50) values were calculated by a nonlinear regression method using GraphPad software (Prism 3.03).
(§2) Effect on proinflammatory cytokines produced by synovial cells obtained from a RA patient was studied for compound 1 as described by procedure of example 8.

Test [2] relates to ICAM-1. Description: Cell-ELISA for adhesion molecule expression in HUVECs: ICAM-1. The format is cell-based. As to conditions: Homo sapiens; TNF-α-induced surface expression, HUVEC. On the procedure:
(§3) The assay was designed on the basis of reference Transplantation, Vol 63(5), 759-764, 1997 with modifications.
(§4) Human Umbilical Vein Endothelial Cells (HUVECs) were obtained from Cascade Biologics and were maintained in M200 (Cascade Biologics, Portland, Oreg.) supplemented with low serum growth supplement (LSGS) at 37° C. in a 5% CO2 incubator. U937 cells (ATCC, Manassas, Va.) were grown in the RPMI 1640 medium supplemented with 10% FBS (Hyclone, Logan, Utah). Recombinant human TNFα, antibodies to VCAM-1, ICAM-1, E-Selectin were obtained from R&D Systems and LPS was obtained from Sigma (St. Louis, Mo.).
(§5) HUVECs were plated at […] in 96-well fibronectin-coated plates. The cells were stimulated with TNF-α (10 ng/ml) or LPS (1 μg/ml), 30 min after addition of test compound. After stimulation, cells (E-Selectin and ICAM-1) were fixed with paraformaldehyde in phosphate buffer saline (PBS). Non specific binding was blocked by 2% bovine serum albumin (BSA) in phosphate buffer saline (PBS) for 1 h, and the cells were incubated with primary antibody for 2 h. […] After washing, seven times, 3,3′5,5′-tetramethylbenzidine liquid substrate (TMB substrate) was added and the optical density of each well was determined at 450 nm using a microtitre plate reader (Spectramax, Molecular Devices, Calif.). […] Percent inhibition of the test sample compared to the control is evaluated. […]

In test [3] the test system is VCAM-1. The test is described as follows: Cell-ELISA for adhesion molecule expression in HUVECs: VCAM-1. The format is cell-based. Particulars: Homo sapiens; TNF-α-induced surface expression, HUVEC. On the procedure: as §3, §4, §5
A general note: ELISA stands for enzyme-linked immunosorbent assay.

Test [4] has as its system Collagen-induced arthritis (CIA). Description: Collagen-induced arthritis (CIA) in DBA/1J mice. The format is in vivo. Particulars: compared to vehicle treated group; H&E and Safranin O staining. On the procedure: Male DBA/1J mice, aged 8-10 weeks, were immunized with 200 μg Collagen Type II as an emulsion in Freund's Complete Adjuvant, by an intradermal injection at the base of the tail. Twenty-one days later, the mice were administered a booster shot of 100 μg Collagen Type II. A set of naïve mice was also maintained alongside. From Day 23 onwards, the mice were assessed for the onset of rheumatoid arthritis using the Articular Index as a parameter. Mice with a minimum hind paw score of 2 were inducted into the study. Extract of example 1 was administered at a dose of 400 mpk (Milligram per kilogram body weight) by oral route twice daily for 12 days. Compound 1 was administered at a dose of 50 mpk and 100 mpk. by oral route twice daily for 12 days. Enbrel (3 mg/kg) was used as a standard and was given subcutaneous once daily. Paw volume and articular index were recorded daily. The data was analysed for statistical significance. On termination of the experiment the paws of the mice were processed for histopathological evaluation. Beneficial effect of extract of example 1 and compound 1 on pathology of arthritic (CIA) DBA/1J mice was evaluated. Microscopy was carried out after Hematoxylin and Eosin staining as well as Safranin O staining of synovial joints.

Test [5] has as its system IL-6. Description: IL-6 production by synovial cells from a RA patient. The format is cell-based. As to conditions: Homo sapiens, Synovial cell, 10 hours. As to the method:
as §1, §2

As to `C=C1C(=O)OC2C3=C(C)CCCC3(C)CCC12O` (centres unmarked) [Compound 1, 3a-hydroxy-5a,9-dimethyl-3-methylene-3a,4,5,5a,6,7,8,9b-octahydro-3H-naphtho[1,2-b]furan-2-one], the IC50 in test [1] was found to be 10900 nM; in test [2], 520 nM; in test [3] it was 400 nM; in test [5], 1400 nM. Besides, in test [4], the “Histopathological analysis of synovial joints” value is “beneficial effects in terms of reducing cartilage destruction, bone destruction and synovitis”.

Usually IC50 stands for the concentration that gives 50% inhibition. Lower therefore signals greater potency.
